This note sets out measurements from patent US8722580B2, “Agent for inhibiting cytokinin signaling” (Sumitomo Chemical Company, Limited, priority 2006, dated 2014).

The structures appear in SMILES notation.

Series [1] has as its system Arabidopsis thaliana. The experiment in a line: Root growth-promoting activity test (Example 22). Type of series: in vivo. As to conditions: main root length vs control section, 22° C., 10 days. As for the experimental part:
Enshi standard medium having the following composition (see Table 18) was prepared. To cluster tubes was dispensed each 4 μl of a solution of a chemical substance in DMSO to a final concentration of 0.001 ppm to 10 ppm, and then, was dispensed each 600 μl of the sterilized Enshi standard medium. Then the resulting solution was well mixed. In each of the cluster tubes, 10-20 seeds of Arabidopsis thaliana were sown, and cultured at 22° C. for 10 days in the light. Then, the length of main roots (average main roots) generated from the seeds of Arabidopsis thaliana was measured. An average of eight repeats was determined, and a root growth rate was determined according to the following equation.
Root growth rate (%)=(Average main root length in chemical substance-treated section)/(Average main root length in control section)×100
Enshi standard medium determined having the following composition (Table 18) was prepared. A DMSO solution of a chemical substance was dispensed by 4 μl to cluster tubes to a final concentration of 0.001 ppm to 10 ppm and the sterilized Enshi standard medium was dispensed by 600 μl and then the resulting solution was well mixed. 10-20 seeds of A. thaliana per cluster tube were sown in the cluster tubes. After culture at 22° C. for 10 days in bright light, the length of main roots (average main roots) took from seeds of A. thaliana was measured. An average of eight repeats was determined and the root growth rate was determined.
Root growth rate (%)=(Average main root length of chemical substance-treated section)/(Average main root length of control section)×100

The subject of series [2] is Arabidopsis thaliana. The series can be described thus: Root growth-promoting activity test (Example 9). Type of series: in vivo. To be noted: Arabidopsis thaliana, 240 h, main root length vs control section, 22° C., 10 days; for activity at 5 ppm: test final concentration 5 ppm (concentration with highest root growth rate). An outline of the steps: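 Compounds at 0.001–10 ppm final (added in DMSO) were mixed into Enshi medium, and Arabidopsis thaliana seeds were cultured in it for 10 days at 22° C under light. Root growth rate (%) is the treated mean main-root length divided by the control mean, from eight repeats.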

For another series, the system named is rice. The series can be described thus: Root growth-promoting activity by rice seed treatment (Example 12). Type of series: in vivo, Oriza sativa L. japonica. As to conditions: rice seeds treated with 10,000 ppm acetone solution; 4 days dark at 30° C. then 35 days greenhouse. As for the experimental part:
With respect to the chemical substance Ic3-1 and the chemical substance Ic7-1 (which inhibit intracellular signaling from a plant-derived cytokinin receptor of a cell) selected in Example 7, a main root-growth promoting activity induced by seed treatment was evaluated using rice (Oriza sativa L. japonica). The chemical substance was dissolved in acetone to prepare a 10,000 ppm solution. The acetone chemical substance solution (300 μl) thus prepared was put in an eppendorf tube. Then, 15 seeds were put in the eppendorf tube. The resulting mixture was mixed for about 30 seconds. The seeds thus chemical-treated were spread and dried on a filter paper.
About 820 ml of culture soil was placed in a plastic container (120 mm in length, 97 mm in height) with a hole in the bottom. The chemical-treated seeds were sowed in the plastic container (15 seeds per plastic container). The seeds were cultivated in a dark place at 30° C. for 4 days and then cultivated in a greenhouse for 35 days. Roots of the plant thus cultivated were removed and the soil adhered to the plant was washed away, followed by freeze-drying. Then, the weight of roots after freeze-drying was measured. A test was repeated 3 times for each treatment section, and an average was determined.

Series [3] concerns transformed cell TM182-p415CYC1. The series can be described thus: Control growth test with transformed yeast cell TM182-p415CYC1 (toxicity to yeast). Type of series: cell-based. As to conditions: trans-zeatin 0.6 ppm; chemical substance 2 ppm; 30° C., 24 hours; turbidity OD 600. The gist of the method: (§1)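 Relative growth % is derived from blank-corrected OD600 against DMSO wells after 24 h at 30° C, with inhibition given as 100 minus that value. Cells were set to OD600=0.1 with 0.6 ppm trans-zeatin and 2 ppm test substance: CRE1 strain in DOLU+Glu, p415CYC1 toxicity control in DOLU+Gal.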

A further series concerns the target T1, cytokinin receptor CRE1 (Arabidopsis thaliana, UniProt Q9C5U0, S567G/T1018A).
T1 construct: expressed in transfected cells; host or cells: Saccharomyces cerevisiae TM182 (sln1Δ) transformed with p415CYC-CRE1
The experiment in a line: Inhibition of intracellular signaling from plant-derived cytokinin receptor, growth of transformed yeast cell TM182-CRE1. Type of series: cell-based. As to conditions: for inhibition at 2 ppm: read-out: Activity (%) of test substance for inhibiting intracellular signaling from plant-derived cytokinin receptor of cell; for Relative growth rate (%) in test section of test substance to control section, Transformed cell TM182-CRE1: trans-zeatin 0.6 ppm, chemical substance 2 ppm, 30° C., 24 hours, turbidity OD 600. The gist of the method:
as §1

T1 sequence (Q9C5U0 24-1080 S567G/T1018A): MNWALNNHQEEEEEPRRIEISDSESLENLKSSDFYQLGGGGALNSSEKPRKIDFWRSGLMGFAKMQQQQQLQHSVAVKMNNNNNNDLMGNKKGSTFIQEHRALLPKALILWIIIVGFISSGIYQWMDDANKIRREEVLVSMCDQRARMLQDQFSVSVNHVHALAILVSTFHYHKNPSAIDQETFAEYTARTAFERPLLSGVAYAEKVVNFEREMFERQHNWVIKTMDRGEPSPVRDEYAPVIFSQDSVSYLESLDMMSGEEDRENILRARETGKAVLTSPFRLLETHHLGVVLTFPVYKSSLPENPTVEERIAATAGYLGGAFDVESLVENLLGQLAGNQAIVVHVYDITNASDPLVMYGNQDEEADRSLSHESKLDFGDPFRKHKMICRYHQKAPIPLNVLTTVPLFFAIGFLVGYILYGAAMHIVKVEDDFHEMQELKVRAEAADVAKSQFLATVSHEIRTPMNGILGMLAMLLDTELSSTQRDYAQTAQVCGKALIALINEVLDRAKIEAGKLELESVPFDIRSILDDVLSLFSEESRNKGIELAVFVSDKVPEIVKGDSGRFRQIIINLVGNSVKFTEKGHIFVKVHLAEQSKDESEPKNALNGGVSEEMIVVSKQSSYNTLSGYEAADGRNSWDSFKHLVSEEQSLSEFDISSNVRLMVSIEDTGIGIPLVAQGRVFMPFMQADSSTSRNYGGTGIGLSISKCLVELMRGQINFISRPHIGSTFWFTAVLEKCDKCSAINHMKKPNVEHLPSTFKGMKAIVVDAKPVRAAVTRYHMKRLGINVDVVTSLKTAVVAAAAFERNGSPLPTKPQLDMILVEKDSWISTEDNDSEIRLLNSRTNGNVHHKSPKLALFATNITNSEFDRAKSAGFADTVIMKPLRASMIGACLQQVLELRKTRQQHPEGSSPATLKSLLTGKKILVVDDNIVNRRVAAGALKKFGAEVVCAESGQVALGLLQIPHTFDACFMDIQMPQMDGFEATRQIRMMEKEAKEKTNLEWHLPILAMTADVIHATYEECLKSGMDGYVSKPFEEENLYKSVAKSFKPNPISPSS

The term melting point denotes the temperature, or range, at which the solid turns liquid. `O=CNc1nc(-c2ccccc2)c2cc(Cl)ccc2n1` [Ic3-35, 6-chloro-2-formamido-4-phenylquinazoline] showed a melting point of 252.1 °C. The “Root growth-promoting activity (root growth rate)” value (“Root growth-promoting activity” below) in the series on Arabidopsis thaliana [1] (test final concentration 2.5 ppm (highest root growth rate)) was 134.0%. Further, the activity at 10 ppm with Arabidopsis thaliana [2] (test final concentration 10 ppm (concentration with highest root growth rate)) came out at 144%.

For the molecule `O=C(O)Cc1c[nH]c2ccccc12` [IAA, reference compound], the “dry weight of roots per plant, % of the control section” value with rice amounted to 87%.

`Clc1ccc2nc(Cl)nc(-c3ccccc3)c2c1` [Ia1-3, 2,6-dichloro-4-phenylquinazoline]: the melting point was found to be 166.2 °C. Also, the “Relative growth rate (%) in test section of test substance to control section, Transformed cell TM182-p415CYC1” value in series [3] came to 113.9%. Besides, at cytokinin receptor CRE1, the inhibition at 2 ppm is 94.5% and the “Relative growth rate (%) in test section of test substance to control section, Transformed cell TM182-CRE1” value was determined as 5.5%. In the series on Arabidopsis thaliana [2], the activity at 5 ppm was found to be 138%.

`CCOC(=O)CNc1nc(-c2ccccc2)c2cc(Cl)ccc2n1` [Ic3-33, 6-chloro-2-ethoxycarbonylmethylamino-4-phenylquinazoline] registered a melting point of 146.1 °C. In addition, the “Root growth-promoting activity” value with Arabidopsis thaliana [1] (test final concentration 10 ppm (highest root growth rate)) worked out at 140.4%. Further, in series [3], the “Relative growth rate (%) in test section of test substance to control section, Transformed cell TM182-p415CYC1” value was found to be 114.6%. Besides, on cytokinin receptor CRE1, the inhibition at 2 ppm was determined as 99% and the “Relative growth rate (%) in test section of test substance to control section, Transformed cell TM182-CRE1” value stood at 1.0%. Besides, in the series on Arabidopsis thaliana [2], the activity at 5 ppm amounted to 124%.

On to `CONc1nc(-c2ccccc2)c2cc(Cl)ccc2n1` [Ic3-32, 6-chloro-2-methoxyamino-4-phenylquinazoline], for which the melting point was found to be 173.9 °C. Besides, the “Relative growth rate (%) in test section of test substance to control section, Transformed cell TM182-p415CYC1” value in series [3] stood at 89.2%. For the same molecule, on cytokinin receptor CRE1, the inhibition at 2 ppm stood at 95.5% and the “Relative growth rate (%) in test section of test substance to control section, Transformed cell TM182-CRE1” value was determined as 4.5%. Further, in the series on Arabidopsis thaliana [2], the activity at 5 ppm stood at 123%.

In turn, `Clc1ccc2nc(NCc3ccco3)nc(-c3ccccc3)c2c1` [Ic3-16, 6-chloro-2-furfurylamino-4-phenylquinazoline] gave a melting point of 142 °C. For the same molecule, in the series with Arabidopsis thaliana [1] (test final concentration 5 ppm (highest root growth rate)), the “Root growth-promoting activity” value is given as 155.3%. Moreover, in series [3], the “Relative growth rate (%) in test section of test substance to control section, Transformed cell TM182-p415CYC1” value was 97.0%. Moreover, on cytokinin receptor CRE1, the inhibition at 2 ppm came out at 96.8% and the “Relative growth rate (%) in test section of test substance to control section, Transformed cell TM182-CRE1” value was 3.2%. For the same molecule, the activity at 5 ppm in the series on Arabidopsis thaliana [2] was 155%.

In turn, `CN(N)c1nc(-c2ccccc2)c2cc(Cl)ccc2n1` [Ic3-27, 6-chloro-2-(1-methylhydrazino)-4-phenylquinazoline] came in with a melting point of 155.9 °C. Also, the “Relative growth rate (%) in test section of test substance to control section, Transformed cell TM182-p415CYC1” value in series [3] is recorded as 107.4%. Also, at cytokinin receptor CRE1, the inhibition at 2 ppm was found to be 97.7% and the “Relative growth rate (%) in test section of test substance to control section, Transformed cell TM182-CRE1” value was 2.3%. Besides, the activity at 2.5 ppm with Arabidopsis thaliana [2] (test final concentration 2.5 ppm (concentration with highest root growth rate)) is 128%.
